17 compounds from PubChem BioAssay (NCI) can be followed below.

SMILES strings stand for the structures.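 Protocol summary: plate cells (96-well), add compound at 5 concentrations, incubate 48 h, interpolate endpoints linearly. TGI denotes the concentration required for complete inhibition of growth.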 A value given as a limit tells only on which side of the number the result lay.

Test systems include SK-MEL-2 melanoma; OVCAR-3 ovarian; M14 melanoma; HOP-92 NSCLC; HCT-116 colon; HT29 colon; MOLT-4 leukemia; HCC-2998 colon; 786-0 renal; MDA-N; COLO 205 colon; ACHN renal.
Holding throughout (assay): NCI tumour cell line growth inhibition, 48 h

As to `Cc1ccc2c(c1)[nH]c1cc(C(F)(F)F)ccc1[p+]2=O` (centres undefined), the TGI was greater than 100 µM with SK-MEL-2 melanoma; greater than 100 µM in the assay with OVCAR-3 ovarian; greater than 100 µM with M14 melanoma; 54.5 µM with HOP-92 NSCLC; greater than 100 µM in the assay on HCT-116 colon; greater than 100 µM in the assay on HT29 colon. Moreover, the TGI in the assay on MOLT-4 leukemia was 52 µM; in the assay with HCC-2998 colon, greater than 100 µM; in the assay with 786-0 renal it was greater than 100 µM; with MDA-N, greater than 100 µM; in the assay on COLO 205 colon it was 31.5 µM; in the assay on ACHN renal, greater than 100 µM.

On to `Cc1ccc([C@H]2CC(=O)C[C@H](c3ccc(C)cc3)C23C(=O)c2ccccc2C3=O)cc1`, for which the TGI in the assay with SK-MEL-2 melanoma is greater than 100 µM; with OVCAR-3 ovarian, greater than 100 µM; in the assay with M14 melanoma it was greater than 100 µM; in the assay on HOP-92 NSCLC, 49.7 µM; with HCT-116 colon, greater than 100 µM; in the assay on HT29 colon, greater than 100 µM. The TGI with MOLT-4 leukemia was greater than 100 µM; with HCC-2998 colon, greater than 100 µM; with 786-0 renal, 31.7 µM; in the assay on MDA-N, greater than 100 µM; in the assay with COLO 205 colon, greater than 100 µM; with ACHN renal it was greater than 100 µM.

Consider `O=c1nc2c(c(-c3ccccc3Cl)[nH]1)COC/C2=C\c1ccccc1Cl`, for which the TGI in the assay with SK-MEL-2 melanoma, with OVCAR-3 ovarian, in the assay on M14 melanoma, in the assay on HOP-92 NSCLC, in the assay on HCT-116 colon and in the assay with HT29 colon was greater than 100 µM throughout. Besides, the TGI in the assay with MOLT-4 leukemia, in the assay on HCC-2998 colon, in the assay on 786-0 renal, in the assay on MDA-N, in the assay with COLO 205 colon and with ACHN renal was greater than 100 µM in each case.

As for `C1CNCCNCCN1`, the TGI in the assay on SK-MEL-2 melanoma, with OVCAR-3 ovarian, in the assay with M14 melanoma, with HOP-92 NSCLC, in the assay on HCT-116 colon and with HT29 colon was greater than 100 µM throughout. The TGI with MOLT-4 leukemia, in the assay on HCC-2998 colon, with 786-0 renal, in the assay with MDA-N, with COLO 205 colon and in the assay on ACHN renal was greater than 100 µM in each case.

In the case of `CCN1C(=O)C(=C/C=C/c2ccc([N+](=O)[O-])cc2)C(=O)N(CC)C1=S`, the TGI with SK-MEL-2 melanoma is 65.3 µM; in the assay on OVCAR-3 ovarian, 32.9 µM; with M14 melanoma, greater than 100 µM; with HOP-92 NSCLC, 34.2 µM; in the assay on HCT-116 colon, 31.9 µM; in the assay on HT29 colon, 50.7 µM. The TGI in the assay on MOLT-4 leukemia is greater than 100 µM; in the assay with HCC-2998 colon, greater than 100 µM; in the assay with 786-0 renal, 34.3 µM; with MDA-N, 67 µM; in the assay on COLO 205 colon, greater than 100 µM; in the assay on ACHN renal, 32.1 µM.

For `CCC(C#N)NC(=O)NC(C#N)CC` (centres undefined), the TGI in the assay on SK-MEL-2 melanoma, in the assay on OVCAR-3 ovarian, in the assay on M14 melanoma, with HOP-92 NSCLC, in the assay with HCT-116 colon and in the assay with HT29 colon was greater than 100 µM in each case. For the same compound, the TGI with MOLT-4 leukemia, in the assay on HCC-2998 colon, with 786-0 renal, in the assay on MDA-N, in the assay with COLO 205 colon and in the assay on ACHN renal was greater than 100 µM throughout.

Take `O=c1c2c([N+](=O)[O-])cccc2nc2[nH]c3ccccc3n12`: the TGI is 42.5 µM in the assay on SK-MEL-2 melanoma; 70.3 µM in the assay on OVCAR-3 ovarian; greater than 75 µM in the assay with M14 melanoma; 69 µM in the assay on HOP-92 NSCLC; greater than 75 µM in the assay with HCT-116 colon; greater than 75 µM in the assay on HT29 colon. For the same compound, the TGI in the assay on MOLT-4 leukemia is greater than 75 µM; in the assay on HCC-2998 colon, 52.2 µM; in the assay on 786-0 renal, greater than 75 µM; in the assay on MDA-N, greater than 75 µM; in the assay with COLO 205 colon, greater than 75 µM; with ACHN renal it was 29 µM.

On to `O=C(NCCCCCCNCc1cccc2ccccc12)Nc1cccc2ccccc12`, for which the TGI with SK-MEL-2 melanoma, with OVCAR-3 ovarian, with M14 melanoma, in the assay on HOP-92 NSCLC, in the assay with HCT-116 colon and with HT29 colon was greater than 100 µM throughout. Besides, the TGI in the assay with MOLT-4 leukemia, with HCC-2998 colon, with 786-0 renal, with MDA-N, in the assay with COLO 205 colon and in the assay with ACHN renal was greater than 100 µM each time.

Turning to `Nc1cccc(Nc2nc3ccccc3nc2NS(=O)(=O)c2ccccc2)c1`, the TGI was determined as 31.3 µM in the assay on SK-MEL-2 melanoma; 47.3 µM with OVCAR-3 ovarian; 71.8 µM in the assay on M14 melanoma; 78 µM with HOP-92 NSCLC; 32.9 µM in the assay on HCT-116 colon; 62.6 µM in the assay with HT29 colon. The TGI is 48.9 µM in the assay on MOLT-4 leukemia; 33.9 µM with HCC-2998 colon; greater than 100 µM in the assay on 786-0 renal; greater than 100 µM in the assay with MDA-N; 29.7 µM in the assay on COLO 205 colon; greater than 100 µM in the assay with ACHN renal.

As for `CN(NC(=O)c1cccs1)C1=NCCCN1`, the TGI in the assay on SK-MEL-2 melanoma, in the assay with OVCAR-3 ovarian, in the assay with M14 melanoma, with HOP-92 NSCLC, in the assay with HCT-116 colon and in the assay with HT29 colon was greater than 100 µM each time. Further, the TGI in the assay with MOLT-4 leukemia, with HCC-2998 colon, in the assay on 786-0 renal, with MDA-N, in the assay on COLO 205 colon and in the assay on ACHN renal was greater than 100 µM throughout.

Regarding `Nc1ccc(N=Nc2ccccc2)cc1`, the TGI in the assay on SK-MEL-2 melanoma was 68.4 µM; in the assay on OVCAR-3 ovarian, 69.1 µM; with M14 melanoma, greater than 100 µM; with HOP-92 NSCLC it was greater than 100 µM; in the assay with HCT-116 colon, greater than 100 µM; with HT29 colon it was greater than 100 µM. In addition, the TGI in the assay with MOLT-4 leukemia, in the assay on HCC-2998 colon, with 786-0 renal, in the assay on MDA-N, with COLO 205 colon and in the assay with ACHN renal was greater than 100 µM in each case.

Take `CCOC(=O)/C=C(/C(=O)OCC)n1ccc(N)nc1=O`: the TGI in the assay on SK-MEL-2 melanoma, in the assay with OVCAR-3 ovarian, with M14 melanoma, in the assay with HOP-92 NSCLC, in the assay on HCT-116 colon and in the assay with HT29 colon was greater than 100 µM each time. For the same compound, the TGI in the assay with MOLT-4 leukemia, with HCC-2998 colon, in the assay on 786-0 renal, in the assay with MDA-N, with COLO 205 colon and with ACHN renal was greater than 100 µM in each case.

`O=c1c2ncn(COCCCl)c2n(-c2ccccc2)c(=S)n1-c1ccccc1`: the TGI in the assay on SK-MEL-2 melanoma, with OVCAR-3 ovarian, with M14 melanoma, with HOP-92 NSCLC, in the assay on HCT-116 colon and with HT29 colon was greater than 100 µM each time. In addition, the TGI in the assay with MOLT-4 leukemia, in the assay with HCC-2998 colon, in the assay on 786-0 renal, in the assay with MDA-N, in the assay on COLO 205 colon and with ACHN renal was greater than 100 µM in each case.

Consider `COc1ccc(/C=N/N=C(\N)NO)c(O)c1`, for which the TGI with SK-MEL-2 melanoma, with OVCAR-3 ovarian, in the assay with M14 melanoma, with HOP-92 NSCLC, in the assay with HCT-116 colon and with HT29 colon was greater than 10 µM each time. The TGI in the assay on MOLT-4 leukemia, in the assay with HCC-2998 colon, in the assay on 786-0 renal, in the assay on MDA-N, in the assay on COLO 205 colon and in the assay with ACHN renal was greater than 10 µM throughout.

For `CNC(=O)Oc1ccc(-c2cn3cc(OC(=O)NC)ccc3n2)cc1`, the TGI with SK-MEL-2 melanoma, in the assay on OVCAR-3 ovarian, with M14 melanoma, in the assay on HOP-92 NSCLC, in the assay with HCT-116 colon and in the assay on HT29 colon was greater than 100 µM in each case. Moreover, the TGI with MOLT-4 leukemia, with HCC-2998 colon, in the assay with 786-0 renal, in the assay with MDA-N, in the assay on COLO 205 colon and in the assay with ACHN renal was greater than 100 µM each time.

Regarding `C=CCCC(=O)CC(O)(C(F)(F)F)C(F)(F)F`, the TGI in the assay on SK-MEL-2 melanoma, in the assay on OVCAR-3 ovarian, with M14 melanoma, in the assay on HOP-92 NSCLC, in the assay with HCT-116 colon and with HT29 colon was greater than 100 µM throughout. Further, the TGI with MOLT-4 leukemia, in the assay on HCC-2998 colon, in the assay with 786-0 renal, in the assay with MDA-N, in the assay on COLO 205 colon and in the assay with ACHN renal was greater than 100 µM throughout.

For `CC(=O)O[C@H]1CC[C@@]2(C)C(=CC[C@H]3[C@@H]4C[C@H](N5CCCC5)[C@H](OC(C)=O)[C@@]4(C)CC[C@@H]32)C1`, the TGI in the assay on SK-MEL-2 melanoma is greater than 100 µM; with OVCAR-3 ovarian, greater than 100 µM; with M14 melanoma, 33.9 µM; in the assay on HOP-92 NSCLC, greater than 100 µM; in the assay on HCT-116 colon, greater than 100 µM; in the assay on HT29 colon, 69.4 µM. The TGI in the assay on MOLT-4 leukemia was greater than 100 µM; in the assay with HCC-2998 colon it was greater than 100 µM; in the assay on 786-0 renal, greater than 100 µM; with MDA-N, greater than 84.4 µM; with COLO 205 colon, greater than 100 µM; with ACHN renal, greater than 100 µM.
